Assays:
[1] = system: SW620M; test: Neutral red uptake antiproliferative assay, MDR line SW620M; type: cell-based, human; conditions: for IC50: exposure time 72 h, n = 3, ABCC1-overexpressing MDR line; for activity factor IC50(1)/IC50(3a–4d), SW620M: vs corresponding amine (R)-1 or (S)-1, 72 h
Excerpt: Next, we evaluated the cytotoxicity of the synthesized complexes toward the panel of six multidrug-resistant (MDR) cell lines derived from SW620 and characterized by the overexpression of various ABC proteins, namely, ABCG2 (SW620C and SW620Mito), ABCC1 (SW620M and SW620E), and ABCB1 (SW620D, SW620E, and SW620V) (Table 3, Figures S29 and S32). […] The activity of the complexes derived from the ligand (S)-2 is also considerably higher than that of the compounds containing the ligand (R)-2. The cytotoxicity of both rhodium 4c and iridium 4d complexes is higher than that of amine (S)-1. In the case of 4c, the increase in cytotoxicity is low, with the highest value of 3.7-fold for the SW620Mito line. […] Compound 4d also exerts a 2.1- and 2.6-fold higher cytotoxicity than […] against the SW620C and SW620D lines.
For this purpose, neutral red uptake assay was performed. […] The results were presented as a percentage of control.

[2] = system: SW620 cells; test: ROS generation, dihydrorhodamine 123 oxidation assay; type: cell-based, human; conditions: SW620, 1 μM compound, 4 h, DHR123 with 10 μM verapamil; vs control or (R)- and (S)-1
Excerpt: Metal complexes often induce reactive oxygen species (ROS) generation in cells,[51] which may increase their cytotoxic activity compared to purely organic molecules. To study the impact of the synthesized compounds on ROS production, we have measured the ROS generation in SW620 cells by the dihydrorhodamine 123 (DHR123) oxidation assay (Figure 9). However, there is no correlation between the antiproliferative potential and the ability of a compound to generate ROS.
Dihydrorhodamine 123 oxidation was used as an indicator of intracellular ROS production. For this purpose, SW620 cells were seeded in 6-well plates at a density of 10^5 cells per well. The cells were left overnight (time needed for them to attach to the surface). Then, 1 μM tested compounds were added along with 1 μM DHR123. Additionally, since DHR123 is a substrate of ABCB1 (which may interfere in this assay), 10 μM verapamil, an inhibitor of this protein, was added. The cells were cultured for an additional 4 h at 37 °C, and then the cells were harvested by trypsinization, resuspended in a complete medium, and analyzed using a LSRII flow cytometer (Becton Dickinson) in a FITC channel (530/30 nm). The results are presented as a percentage of control (median fluorescence in the presence of DMSO).

Row | IC50 [1] | activity factor IC50(1)/IC50(3a–4d), SW620M [1] | Compound | ROS generation (in words) [2]
1 | 3450 nM | (0.070) | CC(C)[C@@H](N=Cc1ccccn1)c1nc2cc(Cl)ccc2c(=O)n1Cc1ccccc1.Cc1ccc(C(C)C)cc1.F[P-](F)(F)(F)(F)F.[Cl-].[Ru+2] [Compound 3a, [(cym)Ru((R)-2)Cl]PF6] | increase the level of ROS
2 | 591 nM | (0.408) | CC(C)[C@@H](N=Cc1ccccn1)c1nc2cc(Cl)ccc2c(=O)n1Cc1ccccc1.Cc1ccc(C(C)C)cc1.F[P-](F)(F)(F)(F)F.[Cl-].[Os+2] [Compound 3b, [(cym)Os((R)-2)Cl]PF6] | 
3 | 1180 nM | (0.204) | CC(C)[C@@H](N=Cc1ccccn1)c1nc2cc(Cl)ccc2c(=O)n1Cc1ccccc1.Cc1c(C)c(C)[c-](C)c1C.F[P-](F)(F)(F)(F)F.[Cl-].[Rh+3] [Compound 3c, [(Cp*)Rh((R)-2)Cl]PF6] | 
4 | 247 nM | (0.976) | CC(C)[C@@H](N=Cc1ccccn1)c1nc2cc(Cl)ccc2c(=O)n1Cc1ccccc1.Cc1c(C)c(C)[c-](C)c1C.F[P-](F)(F)(F)(F)F.[Cl-].[Ir+3] [Compound 3d, [(Cp*)Ir((R)-2)Cl]PF6] | 
